Experimental data: ChEMBL document CHEMBL1145390, “Synthesis and preliminary biological characterization of new semisynthetic derivatives of ramoplanin” (J Med Chem, 2007)
Values after ≈ are worked out from the molar mass of the structure shown.

Experiments:
[1] = test system: Enterococcus faecalis; assay: Antibacterial activity against Enterococcus faecalis after 24 hrs by broth microdilution method; type: functional; settings: read-out: MIC
[2] = test system: Staphylococcus aureus; assay: Antibacterial activity against Staphylococcus aureus Smith after 24 hrs by broth microdilution method; type: functional; settings: read-out: MIC
[3] = test system: Staphylococcus aureus; assay: Antibacterial activity against methicillin-resistant Staphylococcus aureus clinical isolate after 24 hrs by broth microdilution method; type: functional; settings: read-out: MIC
[4] = test system: Staphylococcus aureus; assay: Antibacterial activity against methicillin-resistant and vancomycin-intermediate resistant Staphylococcus aureus clinical isolate after 24 hrs by broth microdilution method; type: functional; settings: read-out: MIC
[5] = test system: Staphylococcus aureus; assay: Antibacterial activity against vancomycin-intermediate resistant Staphylococcus aureus clinical isolate after 24 hrs by broth microdilution method; type: functional
[6] = test system: Streptococcus pyogenes; assay: Antibacterial activity against Streptococcus pyogenes C203 after 24 hrs by broth microdilution method; type: functional; settings: C203, 24 h, read-out: MIC
[7] = test system: Enterococcus faecalis; assay: Antibacterial activity against vancomycin A-resistant Enterococcus faecalis after 24 hrs by broth microdilution method; type: functional; settings: read-out: MIC
[8] = test system: Enterococcus faecium; assay: Antibacterial activity against Enterococcus faecium after 24 hrs by broth microdilution method; type: functional; settings: read-out: MIC
[9] = test system: Enterococcus faecium; assay: Antibacterial activity against vancomycin A-resistant Enterococcus faecium clinical isolate after 24 hrs by broth microdilution method; type: functional; settings: read-out: MIC
[10] = test system: Escherichia coli; assay: Antibacterial activity against Escherichia coli SKF-12140 after 24 hrs by broth microdilution method; type: functional; settings: read-out: MIC
[11] = test system: Candida albicans; assay: Antifungal activity against Candida albicans SKF-2270 after 24 hrs by broth microdilution method; type: functional; settings: read-out: MIC
[12] = Toxicity assessed as hemolysis in erythrocytes at 180 mg/L; type: cell-based, Erythrocyte; settings: human, erythrocytes; read-out: Activity
[13] = Toxicity assessed as hemolysis in erythrocytes at 90 mg/L; type: cell-based, Erythrocyte; settings: human, erythrocytes; read-out: Activity

## COc1ccc(CC(=O)N[C@@H](CC(N)=O)C(=O)NC[C@@H]2C(=O)N[C@H](c3ccc(O)cc3)C(=O)N[C@H](CCCN)C(=O)N[C@H](C(C)C)C(=O)N[C@@H](c3ccc(O)cc3)C(=O)N[C@H](c3ccc(O)cc3)C(=O)N[C@@H]([C@@H](C)O)C(=O)N[C@@H](Cc3ccccc3)C(=O)N[C@H](CCCN)C(=O)N[C@@H](c3ccc(O[C@H]4O[C@H](CO)[C@@H](O)[C@H](O)[C@@H]4O[C@H]4O[C@H](CO)[C@@H](O)[C@H](O)[C@@H]4O)cc3)C(=O)N[C@H]([C@@H](C)O)C(=O)N[C@@H](c3ccc(O)cc3)C(=O)NCC(=O)N[C@@H](CC(C)C)C(=O)N[C@H](C)C(=O)N[C@@H](c3ccc(O)c(Cl)c3)C(=O)O[C@@H]2C(N)=O)cc1
[1]
  MIC: 8 µg/mL (≈ 3.1 µM)
[2]
  MIC: 8 µg/mL (≈ 3.1 µM)
[3]
  MIC: 8 µg/mL (≈ 3.1 µM)
[4]
  MIC: 32 µg/mL (≈ 12.4 µM)
[5]
  MIC: 32 µg/mL (≈ 12.4 µM)
[6]
  MIC: 0.125 µg/mL (≈ 0.0485 µM)
[7]
  MIC: 8 µg/mL (≈ 3.1 µM)
[8]
  MIC: 16 µg/mL (≈ 6.21 µM)
[9]
  MIC: 8 µg/mL (≈ 3.1 µM)
[10]
  MIC: > 32 µg/mL
[11]
  MIC: > 32 µg/mL
[12]
  hemolysis at 180 mg/L: 0%
[13]
  hemolysis at 90 mg/L: 0%

## CCCCc1ccc(C(=O)N[C@@H](CC(N)=O)C(=O)NC[C@@H]2C(=O)N[C@H](c3ccc(O)cc3)C(=O)N[C@H](CCCN)C(=O)N[C@H](C(C)C)C(=O)N[C@@H](c3ccc(O)cc3)C(=O)N[C@H](c3ccc(O)cc3)C(=O)N[C@@H]([C@@H](C)O)C(=O)N[C@@H](Cc3ccccc3)C(=O)N[C@H](CCCN)C(=O)N[C@@H](c3ccc(O[C@H]4O[C@H](CO)[C@@H](O)[C@H](O)[C@@H]4O[C@H]4O[C@H](CO)[C@@H](O)[C@H](O)[C@@H]4O)cc3)C(=O)N[C@H]([C@@H](C)O)C(=O)N[C@@H](c3ccc(O)cc3)C(=O)NCC(=O)N[C@@H](CC(C)C)C(=O)N[C@H](C)C(=O)N[C@@H](c3ccc(O)c(Cl)c3)C(=O)O[C@@H]2C(N)=O)cc1
[1]
  MIC: 0.25 µg/mL (≈ 0.0965 µM)
[2]
  MIC: 0.25 µg/mL (≈ 0.0965 µM)
[3]
  MIC: 0.5 µg/mL (≈ 0.193 µM)
[4]
  MIC: 4 µg/mL (≈ 1.54 µM)
[5]
  MIC: 2 µg/mL (≈ 0.772 µM)
[6]
  MIC: < 0.03 µg/mL
[7]
  MIC: 0.25 µg/mL (≈ 0.0965 µM)
[8]
  MIC: 0.25 µg/mL (≈ 0.0965 µM)
[9]
  MIC: 0.25 µg/mL (≈ 0.0965 µM)
[10]
  MIC: > 32 µg/mL
[11]
  MIC: > 32 µg/mL
[12]
  hemolysis at 180 mg/L: 91%
[13]
  hemolysis at 90 mg/L: 47%

## CCCC(=O)N[C@@H](CC(N)=O)C(=O)NC[C@@H]1C(=O)N[C@H](c2ccc(O)cc2)C(=O)N[C@H](CCCN)C(=O)N[C@H](C(C)C)C(=O)N[C@@H](c2ccc(O)cc2)C(=O)N[C@H](c2ccc(O)cc2)C(=O)N[C@@H]([C@@H](C)O)C(=O)N[C@@H](Cc2ccccc2)C(=O)N[C@H](CCCN)C(=O)N[C@@H](c2ccc(O[C@H]3O[C@H](CO)[C@@H](O)[C@H](O)[C@@H]3O[C@H]3O[C@H](CO)[C@@H](O)[C@H](O)[C@@H]3O)cc2)C(=O)N[C@H]([C@@H](C)O)C(=O)N[C@@H](c2ccc(O)cc2)C(=O)NCC(=O)N[C@@H](CC(C)C)C(=O)N[C@H](C)C(=O)N[C@@H](c2ccc(O)c(Cl)c2)C(=O)O[C@@H]1C(N)=O
[1]
  MIC: 16 µg/mL (≈ 6.4 µM)
[2]
  MIC: > 32 µg/mL
[3]
  MIC: 32 µg/mL (≈ 12.8 µM)
[4]
  MIC: > 32 µg/mL
[5]
  MIC: > 32 µg/mL
[6]
  MIC: 0.5 µg/mL (≈ 0.2 µM)
[7]
  MIC: 16 µg/mL (≈ 6.4 µM)
[8]
  MIC: 32 µg/mL (≈ 12.8 µM)
[9]
  MIC: 16 µg/mL (≈ 6.4 µM)
[10]
  MIC: > 32 µg/mL
[11]
  MIC: > 32 µg/mL
[12]
  hemolysis at 180 mg/L: 2%
[13]
  hemolysis at 90 mg/L: 0%

## CC(C)C[C@@H]1NC(=O)CNC(=O)[C@H](c2ccc(O)cc2)NC(=O)[C@@H]([C@@H](C)O)NC(=O)[C@H](c2ccc(O[C@H]3O[C@H](CO)[C@@H](O)[C@H](O)[C@@H]3O[C@H]3O[C@H](CO)[C@@H](O)[C@H](O)[C@@H]3O)cc2)NC(=O)[C@@H](CCCN)NC(=O)[C@H](Cc2ccccc2)NC(=O)[C@H]([C@@H](C)O)NC(=O)[C@@H](c2ccc(O)cc2)NC(=O)[C@H](c2ccc(O)cc2)NC(=O)[C@@H](C(C)C)NC(=O)[C@@H](CCCN)NC(=O)[C@@H](c2ccc(O)cc2)NC(=O)[C@@H](CNC(=O)[C@H](CC(N)=O)NC(=O)COc2ccccc2)[C@@H](C(N)=O)OC(=O)[C@H](c2ccc(O)c(Cl)c2)NC(=O)[C@@H](C)NC1=O
[1]
  MIC: 8 µg/mL (≈ 3.12 µM)
[2]
  MIC: 4 µg/mL (≈ 1.56 µM)
[3]
  MIC: 8 µg/mL (≈ 3.12 µM)
[4]
  MIC: 32 µg/mL (≈ 12.5 µM)
[5]
  MIC: 16 µg/mL (≈ 6.24 µM)
[6]
  MIC: 0.06 µg/mL (≈ 0.0234 µM)
[7]
  MIC: 4 µg/mL (≈ 1.56 µM)
[8]
  MIC: 4 µg/mL (≈ 1.56 µM)
[9]
  MIC: 4 µg/mL (≈ 1.56 µM)
[10]
  MIC: > 32 µg/mL
[11]
  MIC: > 32 µg/mL
[12]
  hemolysis at 180 mg/L: 0%
[13]
  hemolysis at 90 mg/L: 0%

## CCCCCCCCCC(=O)N[C@@H](CC(N)=O)C(=O)NC[C@@H]1C(=O)N[C@H](c2ccc(O)cc2)C(=O)N[C@H](CCCN)C(=O)N[C@H](C(C)C)C(=O)N[C@@H](c2ccc(O)cc2)C(=O)N[C@H](c2ccc(O)cc2)C(=O)N[C@@H]([C@@H](C)O)C(=O)N[C@@H](Cc2ccccc2)C(=O)N[C@H](CCCN)C(=O)N[C@@H](c2ccc(O[C@H]3O[C@H](CO)[C@@H](O)[C@H](O)[C@@H]3O[C@H]3O[C@H](CO)[C@@H](O)[C@H](O)[C@@H]3O)cc2)C(=O)N[C@H]([C@@H](C)O)C(=O)N[C@@H](c2ccc(O)cc2)C(=O)NCC(=O)N[C@@H](CC(C)C)C(=O)N[C@H](C)C(=O)N[C@@H](c2ccc(O)c(Cl)c2)C(=O)O[C@@H]1C(N)=O
[1]
  MIC: 0.125 µg/mL (≈ 0.0484 µM)
[2]
  MIC: 2 µg/mL (≈ 0.774 µM)
[3]
  MIC: 2 µg/mL (≈ 0.774 µM)
[4]
  MIC: 8 µg/mL (≈ 3.1 µM)
[5]
  MIC: 4 µg/mL (≈ 1.55 µM)
[6]
  MIC: 0.25 µg/mL (≈ 0.0967 µM)
[7]
  MIC: 0.06 µg/mL (≈ 0.0232 µM)
[8]
  MIC: 0.25 µg/mL (≈ 0.0967 µM)
[9]
  MIC: 0.06 µg/mL (≈ 0.0232 µM)
[10]
  MIC: > 32 µg/mL
[11]
  MIC: > 32 µg/mL
[12]
  hemolysis at 180 mg/L: 41%
[13]
  hemolysis at 90 mg/L: 0%

## CC(C)C[C@@H]1NC(=O)CNC(=O)[C@H](c2ccc(O)cc2)NC(=O)[C@@H]([C@@H](C)O)NC(=O)[C@H](c2ccc(O[C@H]3O[C@H](CO)[C@@H](O)[C@H](O)[C@@H]3O[C@H]3O[C@H](CO)[C@@H](O)[C@H](O)[C@@H]3O)cc2)NC(=O)[C@@H](CCCN)NC(=O)[C@H](Cc2ccccc2)NC(=O)[C@H]([C@@H](C)O)NC(=O)[C@@H](c2ccc(O)cc2)NC(=O)[C@H](c2ccc(O)cc2)NC(=O)[C@@H](C(C)C)NC(=O)[C@@H](CCCN)NC(=O)[C@@H](c2ccc(O)cc2)NC(=O)[C@@H](CNC(=O)[C@H](CC(N)=O)NC(=O)c2ccc(Cl)cc2)[C@@H](C(N)=O)OC(=O)[C@H](c2ccc(O)c(Cl)c2)NC(=O)[C@@H](C)NC1=O
[1]
  MIC: 0.5 µg/mL (≈ 0.195 µM)
[2]
  MIC: 0.5 µg/mL (≈ 0.195 µM)
[3]
  MIC: 1 µg/mL (≈ 0.389 µM)
[4]
  MIC: 4 µg/mL (≈ 1.56 µM)
[5]
  MIC: 2 µg/mL (≈ 0.779 µM)
[6]
  MIC: < 0.03 µg/mL
[7]
  MIC: 0.5 µg/mL (≈ 0.195 µM)
[8]
  MIC: 0.5 µg/mL (≈ 0.195 µM)
[9]
  MIC: 0.5 µg/mL (≈ 0.195 µM)
[10]
  MIC: > 32 µg/mL
[11]
  MIC: > 32 µg/mL
[12]
  hemolysis at 180 mg/L: 13%
[13]
  hemolysis at 90 mg/L: 5%

## CC(C)C[C@@H]1NC(=O)CNC(=O)[C@H](c2ccc(O)cc2)NC(=O)[C@@H]([C@@H](C)O)NC(=O)[C@H](c2ccc(O[C@H]3O[C@H](CO)[C@@H](O)[C@H](O)[C@@H]3O[C@H]3O[C@H](CO)[C@@H](O)[C@H](O)[C@@H]3O)cc2)NC(=O)[C@@H](CCCN)NC(=O)[C@H](Cc2ccccc2)NC(=O)[C@H]([C@@H](C)O)NC(=O)[C@@H](c2ccc(O)cc2)NC(=O)[C@H](c2ccc(O)cc2)NC(=O)[C@@H](C(C)C)NC(=O)[C@@H](CCCN)NC(=O)[C@@H](c2ccc(O)cc2)NC(=O)[C@@H](CNC(=O)[C@H](CC(N)=O)NC(=O)c2ccccc2)[C@@H](C(N)=O)OC(=O)[C@H](c2ccc(O)c(Cl)c2)NC(=O)[C@@H](C)NC1=O
[1]
  MIC: 4 µg/mL (≈ 1.58 µM)
[2]
  MIC: 8 µg/mL (≈ 3.16 µM)
[3]
  MIC: 8 µg/mL (≈ 3.16 µM)
[4]
  MIC: > 32 µg/mL
[5]
  MIC: 32 µg/mL (≈ 12.6 µM)
[6]
  MIC: 0.125 µg/mL (≈ 0.0493 µM)
[7]
  MIC: 4 µg/mL (≈ 1.58 µM)
[8]
  MIC: 8 µg/mL (≈ 3.16 µM)
[9]
  MIC: 4 µg/mL (≈ 1.58 µM)
[10]
  MIC: > 32 µg/mL
[11]
  MIC: > 32 µg/mL
[12]
  hemolysis at 180 mg/L: 4%
[13]
  hemolysis at 90 mg/L: 0%
